In US9714250B2, “Crystalline forms of temozolomide and the method for preparing same” (Jiangsu Tasly Diyi Pharmaceutical Co., Ltd., priority 2013, dated 2017):

Assays:
Format in all cases: physicochemical
[1] = Stability test, overall conclusions; conditions: light exposure, high-temperature, high-humidity and accelerated tests
Procedure: (§1) In the following test, related substances were determined as follows: HPLC method was used and chromatographic conditions were as follows: C18 column using octadecylsilane bonded silica gel as the filler, isocratic elution using methanol: 0.5% glacial acetic acid solution (10:90) as the mobile phase, and detection wavelength was at 254 nm.
It should be noted that each crystalline form of Form A, Form B and Form C has similar stability properties. Hereinafter, Form A0, Form B0 and Form C were chosen only for illustrative purpose.

[2] = Light exposure test (stability); conditions: for Appearance and color / Content / Drying loss / Related substances: light intensity 4500±500Lx; for Related substances: HPLC
Procedure: as §1
Crystalline form A of Temozolomide (Form A0 prepared by the method of EXAMPLE 1) was exposed under conditions of light intensity of 4500±500Lx, sampled and determined on the 5th and 10th day.
Crystalline form B of Temozolomide (Form B0 prepared by the method of EXAMPLE 6) was placed, exposed under conditions of light intensity of 4500±500Lx, sampled and determined on the 5th and 10th day.
Crystalline Form C of Temozolomide (Form C prepared by the method of EXAMPLE 14) was placed, exposed under conditions of light intensity of 4500±500Lx, sampled and determined on the 5th and 10th day.

[3] = High temperature test (stability); conditions: for Appearance and color / Content / Drying loss / Related substances: 60° C. incubator; for Related substances: HPLC
Procedure: as §1
Crystalline form A of Temozolomide (Form A0 prepared by the method of EXAMPLE 1) was placed in 60° C. incubator, sampled and determined on the 5th and 10th day.
Crystalline Form B of Temozolomide (Form B0 prepared by the method of EXAMPLE 6) was placed in 60° C. incubator, sampled and determined on the 5th and 10th day.
Crystalline Form C of Temozolomide (Form C prepared by the method of EXAMPLE 14) was placed in 60° C. incubator, sampled and determined on the 5th and 10th day.

Solubility test = conditions: for Amount of solvent for dissolving tested drug: about 10 mg tested drug
Procedure: It should be noted that each crystalline form of Form A, Form B and Form C has similar solubility properties. Hereinafter, Form A0, B0 and C were chosen only for illustrative purpose.
1. Solubility test of the crystalline Form A of Temozolomide (Form A0 prepared by the method of EXAMPLE 1). Solubility properties were assayed respectively by using DMSO, methanol, water, glacial acetic acid, 0.1M HCl, 0.1M NaOH and ethanol as the solvents.
2. Solubility test of the crystalline form B of Temozolomide (Form B0 prepared by the method of EXAMPLE 6). Solubility properties were assayed respectively by using DMSO, methanol, water, glacial acetic acid, 0.1M HCl, 0.1M NaOH and ethanol as the solvents.
3. Solubility test of the crystalline form C of Temozolomide (Form C prepared by the method of EXAMPLE 14). Solubility properties were assayed respectively by using DMSO, methanol, water, glacial acetic acid, 0.1M HCl, 0.1M NaOH and ethanol as the solvents.

[4] = Accelerated test (stability); conditions: 40±2° C., relative humidity 75±5%; for Appearance and color / Content / Related substances: polyethylene film bag; for Related substances: HPLC
Procedure: as §1
Crystalline Form A of Temozolomide (Form A0 prepared by the method of EXAMPLE 1) was sealed by a polyethylene film bag, placed under conditions of 40±2° C. and a relative humidity of 75±5% for 6 months, sampled and determined at the end of the 1st,2nd, 3rd and 6th month.
Crystalline Form B of Temozolomide (Form B0 prepared by the method of EXAMPLE 6) was sealed with a polyethylene film bag and placed under conditions of 40±2° C. and a relative humidity of 75±5% for 6 months, sampled and determined at the end of the 1st, 2nd, 3rd and 6th month.
Crystalline Form C of Temozolomide (Form C prepared by the method of EXAMPLE 14) was sealed with a polyethylene film bag and placed under conditions of 40±2° C. and a relative humidity of 75±5% for 6 months, sampled and determined at the end of the 1st, 2nd, 3rd and 6th month.

Structure (SMILES): Cn1nnc2c(C(N)=O)ncn2c1=O [Form C, Temozolomide]
- Change in the appearance and color, the drying loss, the content and the related substances [1]: no obvious change
- Stability in the light exposure test (conclusion) ([2]; 4500±500Lx, 10 days): stable
- Appearance and color ([2]; 0th day): White powder
- Content ([2]; 0th day): 99.91%
- Drying loss ([2]; 0th day): 0.27%
- Related substances ([2]; 0th day): Not detected
- Appearance and color ([2]; 5th day): White powder
- Content ([2]; 5th day): 99.90%
- Drying loss ([2]; 5th day): 0.30%
- Related substances ([2]; 5th day): Not detected
- Appearance and color ([2]; 10th day): White powder
- Content ([2]; 10th day): 99.96%
- Drying loss ([2]; 10th day): 0.32%
- Related substances ([2]; 10th day): Not detected
- Appearance and color ([3]; 0th day): White powder
- Content ([3]; 0th day): 99.91%
- Drying loss ([3]; 0th day): 0.35%
- Related substances ([3]; 0th day): Not detected
- Appearance and color ([3]; 5th day): White powder
- Content ([3]; 5th day): 99.79%
- Drying loss ([3]; 5th day): 0.37%
- Related substances ([3]; 5th day): Not detected
- Appearance and color ([3]; 10th day): White powder
- Content ([3]; 10th day): 99.69%
- Drying loss ([3]; 10th day): 0.34%
- Related substances ([3]; 10th day): Not detected
- Stability in the high-temperature test (conclusion) ([3]; 60° C., 10 days): stable
- Amount of solvent for dissolving 1 g of tested drug (Solubility test; solvent 0.1M HCl): 800 mL
- Solubility (Solubility test; solvent 0.1M HCl): Slightly soluble
- Amount of solvent for dissolving tested drug (Solubility test; solvent 0.1M HCl): 8.0 mL
- Amount of solvent for dissolving 1 g of tested drug (Solubility test; solvent 0.1M NaOH): 300 mL
- Solubility (Solubility test; solvent 0.1M NaOH): Slightly soluble
- Amount of solvent for dissolving tested drug (Solubility test; solvent 0.1M NaOH): 3.0 mL
- Amount of solvent for dissolving 1 g of tested drug (Solubility test; solvent DMSO): 80 mL
- Solubility (Solubility test; solvent DMSO): sparingly
- Amount of solvent for dissolving tested drug (Solubility test; solvent DMSO): 0.8 mL
- Amount of solvent for dissolving 1 g of tested drug (Solubility test; solvent Ethanol): 6000 mL
- Solubility (Solubility test; solvent Ethanol): Very slightly
- Amount of solvent for dissolving tested drug (Solubility test; solvent Ethanol): 60 mL
- Amount of solvent for dissolving 1 g of tested drug (Solubility test; solvent Glacial acetic acid): 300 mL
- Solubility (Solubility test; solvent Glacial acetic acid): Slightly soluble
- Amount of solvent for dissolving tested drug (Solubility test; solvent Glacial acetic acid): 3.0 mL
- Amount of solvent for dissolving 1 g of tested drug (Solubility test; solvent Methanol): 800 mL
- Solubility (Solubility test; solvent Methanol): Slightly soluble
- Amount of solvent for dissolving tested drug (Solubility test; solvent Methanol): 8.0 mL
- Amount of solvent for dissolving 1 g of tested drug (Solubility test; solvent Water): 800 mL
- Solubility (Solubility test; solvent Water): Slightly soluble
- Amount of solvent for dissolving tested drug (Solubility test; solvent Water): 8.0 mL
- Stability in the accelerated test (conclusion) ([4]; 6 months): stable
- Appearance and color ([4]; 0th month): White powder
- Content ([4]; 0th month): 99.91%
- Related substances ([4]; 0th month): Not detected
- Appearance and color ([4]; 1st month): White powder
- Content ([4]; 1st month): 99.61%
- Related substances ([4]; 1st month): Not detected
- Appearance and color ([4]; 2nd month): White powder
- Content ([4]; 2nd month): 99.87%
- Related substances ([4]; 2nd month): Not detected
- Appearance and color ([4]; 3rd month): White powder
- Content ([4]; 3rd month): 99.93%
- Related substances ([4]; 3rd month): Not detected
- Appearance and color ([4]; 6th month): White powder
- Content ([4]; 6th month): 99.65%
- Related substances ([4]; 6th month): Not detected
